Experimental data taken from article PMC3359661, “FK228 Analogues Induce Fetal Hemoglobin in Human Erythroid Progenitors” (Anemia, 2012).
Values joined by “and” are separate entries in the source; they are usually repeats but may differ in a detail not shown here. Equal entries are not always repeated.

How the values were obtained:
[1] = tested on: HDAC activity in HeLa cells; assay: HDAC Fluorescent Activity Assay (Fluor de Lys) in HeLa cells; type: cell-based, human; conditions: 300 nM; HeLa cells, Fluor de Lys substrate; maximal inhibition
Protocol: (§1) The HDAC Fluorescent Activity Assay (Enzo Life Science, Farmingdale, NY) was used to measure HDAC inhibition in HeLa cells in a 96-well format using Trichostatin A as the positive control per the manufacturer's protocol. This assay is based on the Fluor de Lys (Fluorogenic Histone Deacetylase Lysyl (FDL)) Substrate/Developer. The procedure was as follows: the test compounds FK228, JMA26, and JMA33 were added to HeLa cells along with the FDL substrate to allow intracellular drug activation then fluorescence levels were read on the fluorometer at 440 nm (CytoFluor II, PerSeptive Biosystems, Farmingdale, NY). The drug concentrations tested were based on the amount required for HbF induction in primary cells. Data was reported as the mean ± standard deviation (SD) for at least five replicates.
(§2) To ascertain the mechanism of HbF induction by the lead compounds, we performed an in vivo assay to investigate the ability of JMA26 and JMA33 to act as HDAC inhibitors. The HDAC Fluorescent Activity Assay designed to measure HDAC activity in HeLa cells was completed in a 96-well format. The assay is based on the fact that the Fluor de Lys substrate is deacetylated by HDACs to generate a fluorescent readout. TSA (0.5 to 1000 nM) was used to establish the assay in HeLa cells, showing about 80% HDAC inhibition in our system (Figure 4(a)).
(§3) Figure 4 HDAC inhibition assay. The HDAC Fluorescent Activity Assay was used to measure HDAC inhibition in HeLa cells (See Section 2). Compounds and FDL substrate were added to HeLa cells to allow drug activation in vivo then fluorescence levels were quantified on the fluorometer at 440 nm. (a) Trichostatin A (TSA) was used as the control. (b) Inhibition studies were conducted for FK228 showing maximal HDAC inhibition at the 300 nM concentration. (c) Similar studies were performed for JMA33 and JMA26. The data are reported as the means ± SEM.

HeLa cells = assay: as above; type: cell-based, human; conditions: 300 nM
Protocol: as §1, §2, §3

[2] = tested on: HbF-positive primary erythroid progenitors; assay: Anti-HbF FITC immunostaining of primary erythroid progenitors; type: cell-based, human; conditions: anti-HbF FITC / DAPI, 500 cells counted; 15.5% HbF-positive at baseline in untreated cells
Protocol: (§4) The two-phase liquid culture system was established as previously published by Fibach et al. using buffy coat mononuclear cells, purchased from Carter Blood Care (Fort Worth, TX) in accordance with the guidelines of the Institutional Review Board at the University of Texas at Dallas. During phase 1, cells were grown in IMDM medium with 30% fetal bovine serum and 50 ng/mL each of the granulocyte-monocyte colony-stimulating factor, Interleukin-3, and stem cell factor. Subsequently, phase 2 was initiated on day 7 with the addition of erythropoietin (2 U/mL) and stem cell factor (50 ng/mL). The cells were treated on Day 11 with the different test compounds and harvested on Day 14 (72 hr incubation).
Primary erythroid progenitor cytospin cell preparations were fixed with 4% paraformaldehyde in phosphate buffered saline for 15 min, washed, and then permeabilized with 0.3% Trition-100 solution for 10 min. Cells were then blocked in a 5% bovine serum albumin solution and immunostaining performed at 4°C overnight with anti-HbF fluorescein isothiocyanate (FITC) conjugated antibody (Bethyl Laboratories Inc., TX). Cell nuclei were stained with mounting medium containing 4′,6-diamidino-2-phenylindole (DAPI; Santa Cruz Biotechnology, CA). Primary cells were photographed with an Olympus BX 51 phase contrast epifluorescent microscope equipped with Hoffman Modulation optics. Phase-contrast images were recorded with a CCD camera (1/100 sec exposure) and fluorescence images were photographed through 485/520 nm emission filter. The percent of HbF positive cells was calculated by dividing the number of FITC positive cells by total cells (DAPI positive).
(§5) Figure 3 JMA33 and JMA26 induce HbF in primary erythroid cells. (a) Day 11 erythroid progenitors were treated for 48 hr with the controls agents and the FK228 analogues shown and then analyzed by RT-qPCR. Untreated cells (UT) were used as a control and normalized to one. Data were calculated as the means ± SEM. […] The images generated were used to count 500 DAPI positive cells and the %FITC positive cells were calculated accordingly.

[3] = tested on: γ-promoter activity in GM979 stable line; conditions: μLCRβprRluc AγprFluc GM979 stable line; cited from earlier work
Excerpt: Many published studies have shown that primary erythroid cells remain the best system to confirm HbF-inducing agents and to serve as a predictor of efficacy in vivo. Human burst forming units—erythroid cells in clonogenic assays or erythroid progenitors grown in liquid culture [39, 41]—have been used to evaluate putative HbF inducers. However, these assays are not easily adaptable to large-scale drug screening, thus immortalized cell lines have been investigated for this purpose.

[4] = tested on: HbF levels in primary erythroid cells; assay: HbF ELISA in primary erythroid cells; type: cell-based, human
Protocol: as §4
Total hemoglobin was quantified using 20 μL of protein extract from one million KU812 cells mixed with 5 mL of Drabkin's reagent (Sigma); then cyanmethemoglobin was measured at the 540 nm wavelength. HbF levels were quantified using the human Hemoglobin F ELISA Quantitation Kit (Bethyl Laboratory, Montgomery, TX). Briefly, 96-well plates were coated with sheep anti-human HbF antibody (1 mg/mL). After blocking with 1% bovine serum albumin, horse radish peroxidase-conjugated secondary antibody (1 mg/mL) was added. Raw data were analyzed using GraphPad PRISM (GraphPad Software, Inc., La Jolla, CA) and HbF levels were calculated as a ratio of total hemoglobin corrected for total protein (HbF/total Hb/total protein).

[5] = tested on: γ-globin transcription in primary erythroid progenitors; assay: RT-qPCR of γ-globin mRNA in primary erythroid progenitors (two-phase liquid culture); type: cell-based, human; conditions: Day 11 erythroid progenitors treated 48 hr (Figure 3 legend), untreated normalized to one
Protocol: as §4
Total RNA was isolated from samples using RNA Stat-60 (TEL-TEST “B” Inc., Friendswood, TX) and used for RT-qPCR analysis as previously published. […] The globin mRNA levels were calculated as a ratio of GAPDH (γ/GAPDH, β/GAPDH), and the γ/β-globin mRNA ratio was calculated by dividing γ/GAPDH by β/GAPDH.
as §5, with “Untreated cells (UT) were used as a control and normalized to one.” left out

FK228
HDAC inhibition [1]: about 85%
cell toxicity (HeLa cells): marked cell toxicity
increase in HbF-positive cells [2]: 3.5 fold
concentration inducing γ-promoter activity [3]: 1 nM
Fold change in HbF levels ([4]; relative to untreated = 1, concentrations as in E7): 2.4 fold and 2.454 fold
Fetal hemoglobin quantification, Mean (HbF/total Hb/total protein) ([4]; treated Day 11, harvested Day 14, conc: Cys 10 mM, Hemin 50 μM, SAHA 2000 nM, FK228 1.5 nM, JMA1 1.5 nM, JMA2 1.0 nM, JMA26 500 nM, JMA33 1000 nM, untreated 0.683): 1.676
induction of γ-globin transcription at the mRNA level [5]: ≤ 3.2 fold
